These results are taken from the OPERA property sets (Mansouri et al. 2018).

On to `CCOC(=S)NCCn1c([N+](=O)[O-])cnc1C`, for which the logP (in general, a log measure of how a compound divides between an organic and an aqueous phase) was 1.5.
With `CCN1C(=O)C(=O)c2c(OC)cc(OC)cc2C1=O`, the logP was 1.23.
In the case of `O=c1cc2ccccc2n[nH]1` it was 0.68.
In the case of `CCCCCCC(C)(C)c1ccc(C2CC(O)CC3CCC(O)CC32)c(O)c1` (configuration not stated) it was 6.13; in that of `COc1cccc(N2CCN(CCN(C)C)C2=O)c1`, 1.76; in that of `CCC(=O)C(CS(=O)(=O)c1ccccc1)c1ccc(Cl)cc1` (configuration not stated), 2.69.
In the case of `CCNC(=O)C1(O)C(C)CC2C3CCC4=CC(=O)C=CC4(C)C3(F)C(O)CC21C` (configuration not stated) it was 2.07.
Compound `CCCCCCOc1cccc(NC(=O)OCCN2CCOCC2)c1` displayed a logP of 4.73.
In the case of `CCC(=O)OC(C(=O)NC1C(=O)N2C(C(=O)O)=C(C)CSC12)c1ccccc1` (configuration not stated) it was 1.47.
In the case of `N#CC(C#N)=NNc1ccccc1Cl` it was 3.12; in that of `C#CCOc1c(Cl)cc(NC=NO)cc1Cl`, 2.8.
In the case of `NC(=O)c1cc2ccccc2o1` it was 1.54.
